“And” between values parts separate entries of the source, which are not always exact repeats. Equal entries are not always repeated.
Columns and labels:
BaDHPS [1] = target: T1, BaDHPS (Bacillus anthracis, UniProt Q81VW8); experiment: biochemical; assay type: binding
Aqueous solubility = assay type: physicochemical
YpDHPS [2] = target: T2, YpDHPS (Yersinia pestis, UniProt A0A2S9PLG4); experiment: biochemical
Antimicrobial activity = assay type: cell-based
SaDHPS [3] = target: T3, SaDHPS (Staphylococcus aureus, UniProt O05701); experiment: DHPS enzyme inhibition assay; assay type: biochemical
BaDHPS [4] = target: T1, BaDHPS; assay type: biochemical
BaDHPS [5] = target: T1, BaDHPS; experiment: biochemical
SaDHPS [6] = target: T3, SaDHPS; experiment: Michaelis-Menten kinetics in the presence of compound 11; assay type: biochemical; settings: pABA 0 to 10 μM
[7] = LC-MS stability in conditions that recapitulate the crystallization conditions; assay type: physicochemical; settings: conditions that recapitulate the crystallization conditions (pH and time)
YpDHPS [8] = target: T2, YpDHPS; assay type: biochemical

T2 sequence (A0A2S9PLG4 1-277): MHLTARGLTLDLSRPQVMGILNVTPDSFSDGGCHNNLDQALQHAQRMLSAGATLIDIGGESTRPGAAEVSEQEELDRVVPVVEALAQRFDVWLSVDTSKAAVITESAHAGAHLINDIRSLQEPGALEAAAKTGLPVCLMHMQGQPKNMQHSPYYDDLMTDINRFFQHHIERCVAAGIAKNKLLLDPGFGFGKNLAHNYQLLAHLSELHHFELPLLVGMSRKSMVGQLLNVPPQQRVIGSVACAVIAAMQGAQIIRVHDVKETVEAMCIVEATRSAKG
T1 sequence (Q81VW8 1-280): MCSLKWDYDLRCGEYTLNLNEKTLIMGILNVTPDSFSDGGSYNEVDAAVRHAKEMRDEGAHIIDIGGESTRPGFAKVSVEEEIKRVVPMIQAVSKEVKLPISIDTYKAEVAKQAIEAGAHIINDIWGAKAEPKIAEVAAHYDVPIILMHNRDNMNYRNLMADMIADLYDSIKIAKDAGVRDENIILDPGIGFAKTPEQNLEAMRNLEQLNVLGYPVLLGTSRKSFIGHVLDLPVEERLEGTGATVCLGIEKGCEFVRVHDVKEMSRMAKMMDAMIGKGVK
T3 sequence (O05701 whole entry): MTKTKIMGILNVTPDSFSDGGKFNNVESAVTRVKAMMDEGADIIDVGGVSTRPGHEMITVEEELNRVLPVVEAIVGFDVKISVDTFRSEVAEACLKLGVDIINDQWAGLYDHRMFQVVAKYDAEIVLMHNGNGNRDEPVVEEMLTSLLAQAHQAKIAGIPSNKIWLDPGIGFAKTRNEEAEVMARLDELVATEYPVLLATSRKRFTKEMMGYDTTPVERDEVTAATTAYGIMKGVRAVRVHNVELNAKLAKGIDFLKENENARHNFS

With FC(F)(F)c1ccc(/C=N/Cc2ccc(C(F)(F)F)cc2)cc1 [Compound 11, (E)-N-(4-(Trifluoromethyl)benzylidene)-1-(4-(trifluoromethyl)phenyl) Methanamine] the Kd (BaDHPS [1]) was 130 ± 1 µM, the “increase in binding affinity of pABA to DHPS in the presence of 11” value (BaDHPS [1]) was 2 fold and the aqueous solubility (Aqueous solubility) was “limited aqueous solubility”. For the same compound, the IC50 (YpDHPS [2]) was 31 µM, the inhibition at 250 µM (YpDHPS [2]; read-out: inhibition of YpDHPS) was 100% and the antimicrobial activity (Antimicrobial activity) was “lacks antimicrobial activity”. The IC50 (SaDHPS [3]) was 17 µM, the inhibition at 250 µM (SaDHPS [3]; read-out: inhibition of SaDHPS) was 100% and the Kmobs (BaDHPS [4]) was 1.0 µM and 0.74 µM. For the same compound, the Vmaxobs (BaDHPS [4]) was 106.7 nM/min and 70.81 nM/min, the IC50 (BaDHPS [5]) was 50 µM and the inhibition at 250 µM (BaDHPS [5]; read-out: inhibition of BaDHPS) was 100%. For the same compound, the Kmobs (SaDHPS [6]; 50 μM compd 11, DHPP 20 μM) was 2.7 µM, the Vmaxobs (SaDHPS [6]; 50 μM compd 11, DHPP 20 μM) was 211.2 nM/min and the Kmobs (SaDHPS [6]; 100 μM compd 11, DHPP 20 μM) was 0.38 µM. For the same compound, the Vmaxobs (SaDHPS [6]; 100 μM compd 11, DHPP 20 μM) was 31.19 nM/min, the “stability by liquid chromatography-mass spectrometric analysis” value [7] was “stable” and the Kmobs (YpDHPS [8]) was 1.8 µM and 1.2 µM.

Reference: publication PMC4076017 (ACS Chemical Biology, 2014)
